How the values were obtained:
HDAC1 = HDAC1 (Homo sapiens (Human), UniProt Q13547); experiment: HDAC1 enzymatic assay; type: biochemical; conditions: read-out: Human HDAC1 IC50
In short: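 HDAC1 activity was measured in duplicate 50 μl reactions containing 0.5 ng HDAC1, 10 uM of HDAC substrate, and test compound in buffer (50 mM Tris-HCl, pH 7.4, 137 mM NaCl, 2.7 mM KCl, 0.05% Tween 20, 5 μg BSA) with 1% DMSO, incubated 17 hours at room temperature. HDAC Developer was then added for 20 minutes and fluorescence read at 360/460 nm.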

HDAC6 = HDAC6 (Homo sapiens (Human), UniProt Q9UBN7); experiment: HDAC6 enzymatic assay; type: biochemical; conditions: read-out: Human HDAC6 IC50
HDAC6, sequence (Q9UBN7 whole entry): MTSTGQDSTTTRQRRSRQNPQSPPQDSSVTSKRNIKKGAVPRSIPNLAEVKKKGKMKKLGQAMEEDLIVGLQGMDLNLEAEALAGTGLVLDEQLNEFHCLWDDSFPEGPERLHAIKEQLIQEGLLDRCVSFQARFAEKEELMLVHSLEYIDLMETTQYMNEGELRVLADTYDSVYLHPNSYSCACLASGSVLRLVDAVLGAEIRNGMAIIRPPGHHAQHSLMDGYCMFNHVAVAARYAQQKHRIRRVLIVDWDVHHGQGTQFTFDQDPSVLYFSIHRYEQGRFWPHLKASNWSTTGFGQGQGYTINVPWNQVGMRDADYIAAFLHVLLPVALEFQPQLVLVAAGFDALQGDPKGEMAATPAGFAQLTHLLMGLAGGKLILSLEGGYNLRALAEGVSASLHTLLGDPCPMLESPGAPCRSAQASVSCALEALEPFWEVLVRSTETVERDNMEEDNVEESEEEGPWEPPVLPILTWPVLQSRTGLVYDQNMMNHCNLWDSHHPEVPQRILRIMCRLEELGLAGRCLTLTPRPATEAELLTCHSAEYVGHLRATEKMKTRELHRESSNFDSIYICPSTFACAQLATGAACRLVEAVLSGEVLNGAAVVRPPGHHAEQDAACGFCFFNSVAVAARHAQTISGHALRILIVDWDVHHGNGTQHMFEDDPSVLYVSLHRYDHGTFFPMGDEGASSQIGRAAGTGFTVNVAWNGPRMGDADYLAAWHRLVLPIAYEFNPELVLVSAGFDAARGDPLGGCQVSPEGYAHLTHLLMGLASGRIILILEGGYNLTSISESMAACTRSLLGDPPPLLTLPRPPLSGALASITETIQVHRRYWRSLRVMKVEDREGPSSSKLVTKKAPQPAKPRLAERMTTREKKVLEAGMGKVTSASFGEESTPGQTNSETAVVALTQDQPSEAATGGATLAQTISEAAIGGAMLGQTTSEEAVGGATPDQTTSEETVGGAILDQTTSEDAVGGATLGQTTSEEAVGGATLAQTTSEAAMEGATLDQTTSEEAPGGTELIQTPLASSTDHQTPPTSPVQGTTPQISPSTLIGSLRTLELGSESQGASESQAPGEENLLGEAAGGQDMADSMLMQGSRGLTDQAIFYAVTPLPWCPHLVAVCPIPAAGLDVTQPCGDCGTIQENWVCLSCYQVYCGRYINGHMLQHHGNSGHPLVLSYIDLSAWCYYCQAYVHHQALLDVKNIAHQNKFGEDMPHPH
In short: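 Human HDAC6 activity was measured in duplicate 50 μl reactions holding 2 ng HDAC6, 10 uM of HDAC substrate and test compound in HDAC assay buffer (50 mM Tris-HCl, pH 7.4, 137 mM NaCl, 2.7 mM KCl, 0.05% Tween 20, 5 μg BSA) with 1% DMSO, for 17 hours at room temperature. HDAC Developer was added for 20 minutes before reading fluorescence at 360/460 nm.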

HDAC1, sequence (Q13547 whole entry): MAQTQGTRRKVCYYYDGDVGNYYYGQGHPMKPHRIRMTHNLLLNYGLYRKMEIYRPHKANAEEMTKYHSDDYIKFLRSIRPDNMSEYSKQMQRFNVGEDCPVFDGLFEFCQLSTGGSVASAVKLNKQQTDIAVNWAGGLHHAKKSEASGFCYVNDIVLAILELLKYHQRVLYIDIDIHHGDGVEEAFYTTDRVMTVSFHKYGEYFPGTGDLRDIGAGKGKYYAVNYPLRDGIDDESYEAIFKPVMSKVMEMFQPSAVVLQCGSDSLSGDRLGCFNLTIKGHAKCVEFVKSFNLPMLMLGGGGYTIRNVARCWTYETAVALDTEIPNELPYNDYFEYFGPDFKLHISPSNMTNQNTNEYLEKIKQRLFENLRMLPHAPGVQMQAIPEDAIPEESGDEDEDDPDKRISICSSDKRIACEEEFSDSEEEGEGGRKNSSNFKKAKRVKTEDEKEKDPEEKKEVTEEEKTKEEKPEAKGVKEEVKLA

| Compound | IC50 (HDAC1) [nM] | IC50 (HDAC6) [nM] |
| --- | --- | --- |
| Fc1ccc(C2(Nc3ncc(-c4nnc(C(F)F)o4)cn3)CCN(c3ccccc3)CC2)cc1 [Example 17, 5-(5-(difluoromethyl)-1,3,4-oxadiazol-2-yl)-N-(4-(4-fluorophenyl)-1-phenylpiperidin-4-yl)pyrimidin-2-amine] | > 30000 | 160 |
| Fc1ccc(C(Nc2ncc(-c3nnc(C(F)F)o3)cn2)C(F)(F)F)cc1 (stereo not drawn) [Example 15, 5-(5-(difluoromethyl)-1,3,4-oxadiazol-2-yl)-N-(2,2,2-trifluoro-1-(4-fluorophenyl)ethyl)pyrimidin-2-amine] | > 30000 | 74 |
| O=C(NCC(Nc1ncc(-c2nnc(C(F)F)o2)cn1)c1ccc(F)cc1)C1CC1 (single isomer, unassigned) [168(−), N-(2-((5-(5-(difluoromethyl)-1,3,4-oxadiazol-2-yl)pyrimidin-2-yl)amino)-2-(4-fluorophenyl)ethyl)cyclopropanecarboxamide] | > 30000 | 750 |
| CC(=O)NCC(Nc1ncc(-c2nnc(C(F)F)o2)cn1)c1ccc(F)cc1 (single isomer, unassigned) [78(+), N-(2-((5-(5-(difluoromethyl)-1,3,4-oxadiazol-2-yl)pyrimidin-2-yl)amino)-2-(4-fluorophenyl)ethyl)acetamide] | > 30000 | 48 |
| Cc1cccc(CNc2ncc(-c3nnc(C(F)(F)F)o3)cn2)n1 [Example 3, N-((6-methylpyridin-2-yl)methyl)-5-(5-(trifluoromethyl)-1,3,4-oxadiazol-2-yl) pyrimidin-2-amine] | > 30000 | 230 |
| CS(=O)(=O)N(CC(Nc1ncc(-c2nnc(C(F)F)o2)cn1)c1ccc(F)cc1F)CC(F)(F)F (stereo not drawn) [138(+), N-(2-((5-(5-(difluoromethyl)-1,3,4-oxadiazol-2-yl)pyrimidin-2-yl)amino)-2-(2,4-difluorophenyl)ethyl)-N-(2,2,2-trifluoroethyl)methanesulfonamide] | > 30000 | 75 |
| CN(c1ncc(-c2nnc(C(F)F)o2)cn1)C1(c2ccc(F)cc2)CC1 [Example 8, 5-(5-(difluoromethyl)-1,3,4-oxadiazol-2-yl)-N-(1-(4-fluorophenyl)cyclopropyl)-N-methylpyrimidin-2-amine] | > 30000 | 9000 |
| CCCC(Nc1ncc(-c2nnc(C(F)F)o2)cn1)c1ccc(F)cc1 (stereo not drawn) [Example 23, 5-(5-(difluoromethyl)-1,3,4-oxadiazol-2-yl)-N-(1-(4-fluorophenyl)butyl)pyrimidin-2-amine] | > 30000 | 100 |
| CS(=O)(=O)N(CC(Nc1ncc(-c2nnc(C(F)F)o2)cn1)c1ccc(Cl)cc1)CC(F)(F)F (single isomer, unassigned) [174(+), N-(2-(4-chlorophenyl)-2-((5-(5-(difluoromethyl)-1,3,4-oxadiazol-2-yl)pyrimidin-2-yl)amino)ethyl)-N-(2,2,2-trifluoroethyl)methanesulfonamide] | > 30000 | 170 |
| CC(=O)NCC(Nc1ncc(-c2nnc(C(F)F)o2)cn1)c1ccc(F)cc1 (single isomer, unassigned) [78(−), N-(2-((5-(5-(difluoromethyl)-1,3,4-oxadiazol-2-yl)pyrimidin-2-yl)amino)-2-(4-fluorophenyl)ethyl)acetamide] | > 30000 | 420 |
| CC(C)C1(Nc2ncc(-c3nnc(C(F)F)o3)cn2)CC1 [Example 28, 5-(5-(difluoromethyl)-1,3,4-oxadiazol-2-yl)-N-(1-isopropylcyclopropyl)pyrimidin-2-amine] | > 30000 | 610 |
| CC(C)C(Nc1ncc(-c2nnc(C(F)F)o2)cn1)c1ccc(F)cc1 (stereo not drawn) [Example 24, 5-(5-(difluoromethyl)-1,3,4-oxadiazol-2-yl)-N-(1-(4-fluorophenyl)-2-methylpropyl)pyrimidin-2-amine] | > 30000 | 95 |
| Fc1ccc(C2(Nc3ncc(-c4nnc(C(F)F)o4)cn3)CC2)c(F)c1 [Example 10, 5-(5-(difluoromethyl)-1,3,4-oxadiazol-2-yl)-N-(1-(2,4-difluorophenyl)cyclopropyl)pyrimidin-2-amine] | > 100000 | 9 |
| CC(=O)N(CC(Nc1ncc(-c2nnc(C(F)F)o2)cn1)c1ccc(F)cc1)CC(F)(F)F (single isomer, unassigned) [167(+), N-(2-((5-(5-(difluoromethyl)-1,3,4-oxadiazol-2-yl)pyrimidin-2-yl)amino)-2-(4-fluorophenyl)ethyl)-N-(2,2,2-trifluoroethyl)acetamide] | > 30000 | 110 |
| CS(=O)(=O)N(CC(Nc1ncc(-c2nnc(C(F)F)o2)cn1)c1ccc(OC(F)F)cc1F)CC(F)(F)F (stereo not drawn) [146(+), N-(2-(4-(difluoromethoxy)-2-fluorophenyl)-2-((5-(5-(difluoromethyl)-1,3,4-oxadiazol-2-yl)pyrimidin-2-yl)amino)ethyl)-N-(2,2,2-trifluoroethyl)methanesulfonamide] | > 30000 | 140 |
| Fc1ccc(C(Nc2ncc(-c3nnc(C(F)F)o3)cn2)C2CC2)cc1 (stereo not drawn) [Example 36, N-(cyclopropyl(4-fluorophenyl)methyl)-5-(5-(difluoromethyl)-1,3,4-oxadiazol-2-yl)pyrimidin-2-amine] | > 30000 | 64 |
| Fc1ccc(C(COCC(F)(F)F)Nc2ncc(-c3nnc(C(F)F)o3)cn2)cc1 (single isomer, unassigned) [162(+), 5-(5-(difluoromethyl)-1,3,4-oxadiazol-2-yl)-N-(1-(4-fluorophenyl)-2-(2,2,2-trifluoroethoxy)ethyl)pyrimidin-2-amine] | > 30000 | 130 |

Now from value to molecule:

| IC50 (HDAC1) [nM] | IC50 (HDAC6) [nM] | Compound |
| --- | --- | --- |
| > 30000 | 250 | CS(=O)(=O)Nc1ccc(C(Nc2ncc(-c3nnc(C(F)F)o3)cn2)c2ccc(F)cc2)cc1 (stereo not drawn) [Example 129, N-(4-(((5-(5-(difluoromethyl)-1,3,4-oxadiazol-2-yl)pyrimidin-2-yl)amino)(4-fluorophenyl)methyl)phenyl)methanesulfonamide] |
| > 30000 | 190 | CS(=O)(=O)Nc1ccccc1C(Nc1ncc(-c2nnc(C(F)F)o2)cn1)c1ccc(F)cc1 (stereo not drawn) [Example 130, N-(2-(((5-(5-(difluoromethyl)-1,3,4-oxadiazol-2-yl)pyrimidin-2-yl)amino)(4-fluorophenyl)methyl)phenyl)methanesulfonamide] |
| > 30000 | 44 | COc1ccc(C2(Nc3ncc(-c4nnc(C(F)F)o4)cn3)CC2)cc1 [Example 44, 5-(5-(difluoromethyl)-1,3,4-oxadiazol-2-yl)-N-(1-(4-methoxyphenyl)cyclopropyl)pyrimidin-2-amine] |
| > 30000 | 23 | COc1ccccc1C1(Nc2ncc(-c3nnc(C(F)F)o3)cn2)CC1 [Example 46, 5-(5-(difluoromethyl)-1,3,4-oxadiazol-2-yl)-N-(1-(2-methoxyphenyl)cyclopropyl)pyrimidin-2-amine] |
| > 30000 | 49 | CC(NS(C)(=O)=O)C(Nc1ncc(-c2nnc(C(F)F)o2)cn1)c1ccc(F)cc1 (single isomer, unassigned) [Example 127B, N-(1-((5-(5-(difluoromethyl)-1,3,4-oxadiazol-2-yl)pyrimidin-2-yl)amino)-1-(4-fluorophenyl)propan-2-yl)methanesulfonamide] |
| > 30000 | 14 | Fc1ccc(Cl)cc1C1(Nc2ncc(-c3nnc(C(F)F)o3)cn2)CC1 [Example 76, N-(1-(5-chloro-2-fluorophenyl)cyclopropyl)-5-(5-(difluoromethyl)-1,3,4-oxadiazol-2-yl)pyrimidin-2-amine] |
| > 30000 | 6 | FC(F)c1nnc(-c2cnc(NC3(c4ccccc4Cl)CC3)nc2)o1 [Example 52, N-(1-(2-chlorophenyl)cyclopropyl)-5-(5-(difluoromethyl)-1,3,4-oxadiazol-2-yl)pyrimidin-2-amine] |
| > 30000 | 29 | Fc1ccc(C2(Nc3ncc(-c4nnc(C(F)F)o4)cn3)CCC2)cc1 [Example 88] |
| > 30000 | 22 | Fc1cccc(C2(Nc3ncc(-c4nnc(C(F)F)o4)cn3)CC2)c1F [Example 60, 5-(5-(difluoromethyl)-1,3,4-oxadiazol-2-yl)-N-(1-(2,3-difluorophenyl)cyclopropyl) pyrimidin-2-amine] |
| > 30000 | 46 | N#Cc1ccc(C2(Nc3ncc(-c4nnc(C(F)F)o4)cn3)CC2)cc1 [Example 48, 4-(1-((5-(5-(difluoromethyl)-1,3,4-oxadiazol-2-yl)pyrimidin-2-yl)amino)cyclopropyl) benzonitrile] |
| > 30000 | 32 | CCCS(=O)(=O)NCC(Nc1ncc(-c2nnc(C(F)F)o2)cn1)c1ccc(F)cc1 (stereo not drawn) [Example 111, N-(2-((5-(5-(difluoromethyl)-1,3,4-oxadiazol-2-yl)pyrimidin-2-yl)amino)-2-(4-fluorophenyl)ethyl)propane-1-sulfonamide] |
| > 30000 | 43 | CC(O)C(Nc1ncc(-c2nnc(C(F)F)o2)cn1)c1ccc(F)cc1F (stereo not drawn) [Example 93, 1-((5-(5-(difluoromethyl)-1,3,4-oxadiazol-2-yl)pyrimidin-2-yl)amino)-1-(2,4-difluorophenyl)propan-2-ol] |
| > 30000 | 15 | FC(F)c1nnc(-c2cnc(NC3(c4cccc(Cl)c4)CC3)nc2)o1 [Example 51, N-(1-(3-chlorophenyl)cyclopropyl)-5-(5-(difluoromethyl)-1,3,4-oxadiazol-2-yl)pyrimidin-2-amine] |
